Like-named read-outs stand apart in the source and are kept apart here. Where a SMILES comes first, the peptide text is derived from it. Bridges are numbered along the chain shown (N, C = ends). [ ]: non-standard residue; d: D form. The star is where a group is joined. d(aIle) = CC[C@H](C)[C@@H](N)C(=O)O; d(aThr) = C[C@@H](O)[C@@H](N)C(=O)O; Hexanoyl(5-Me) = CC(C)CCCC(=O)*; d(hCys) = N[C@H](CCS)C(=O)O; Orn = NCCC[C@H](N)C(=O)O; Dhb = C/C=C(\N)C(=O)O
What was measured:
Type in all cases: cell-based, human
[1] = system: IGROV-1; test: SRB colorimetric assay of cell growth and viability, IGROV-1; settings: 48 hours exposure
[2] = system: LoVo; test: SRB colorimetric assay of cell growth and viability, LoVo; settings: 48 hours exposure
[3] = system: LoVo-Dox; test: SRB colorimetric assay of cell growth and viability, LoVo-Dox; settings: 48 hours exposure
Outline: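 Human tumor cells seeded at 5×10^3/well in RPMI 1640 10% FBS, attached 18 hours, then exposed 48 hours to compound (10 to 10^−8 μg/mL). TCA-fixed, SRB-stained, OD 490 nm; triplicates give GI, TGI and LC values.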

[4] = system: SK-OV-3; test: SRB colorimetric assay of cell growth and viability, SK-OV-3; settings: 48 hours exposure
Excerpt: (§1) The finality of this assay is to interrupt the growth of a “in vitro” tumor cell culture by means a continued exhibition of the cells to the sample to be testing.
(§2) A colorimetric type of assay, using sulforhodamine B (SRB) reaction has been adapted for a quantitative measurement of cell growth and viability [following the technique described by Philip Skehan, et al. (1990), New colorimetric cytotoxicity assay for anticancer drug screening, J. Natl. Cancer Inst., 82:1107-1112].
(§3) This form of the assay employs 96 well cell culture microplates of 9 mm diameter (Faircloth, 1988; Mosmann, 1983). Most of the cell lines are obtained from American Type Culture Collection (ATCC) derived from different human cancer types.
(§4) Cells are maintained in RPMI 1640 10% FBS, supplemented with 0.1 g/l penicillin and 0.1 g/l streptomycin sulfate and then incubated at 37° C., 5% CO2 and 98% humidity. For the experiments, cells were harvested from subconfluent cultures using trypsin and resuspended in fresh medium before plating.
(§5) Cells are seeded in 96 well microtiter plates, at 5×10^3 cells per well in aliquots of 195 μL medium, and they are allowed to attach to the plate surface by growing in drug free medium for 18 hours. Afterward, samples are added in aliquots of 5 μL in a ranging from 10 to 10^−8 μg/mL, dissolved in DMSO:EtOH:PBS (0.5:0.5:99). After 48 hours exposure, the antitumor effect are measured by the SRB methodology: cells are fixed by adding 50 μL of cold 50% (wt/vol) trichloroacetic acid (TCA) and incubating for 60 minutes at 4° C. Plates are washed with deionized water and dried. One hundred μL of SRB solution (0.4% wt/vol in 1% acetic acid) is added to each microtiter well and incubated for 10 minutes at room temperature. Unbound SRB is removed by washing with 1% acetic acid. Plates are air dried and bound stain is solubilized with Tris buffer. Optical densities are read on a automated spectrophotometric plate reader at a single wavelength of 490 nm.
(§6) The values for mean+/− SD of data from triplicate wells are calculated. Some parameters for cellular responses can be calculated: GI=growth inhibition, TGI=total growth inhibition (cytostatic effect) and LC=cell killing (cytotoxic effect).

[5] = system: K-562; test: SRB colorimetric assay of cell growth and viability, K-562; settings: 48 hours exposure
[6] = system: IGROV-ET; test: SRB colorimetric assay of cell growth and viability, IGROV-ET; settings: 48 hours exposure
[7] = system: DU-145; test: SRB colorimetric assay of cell growth and viability, DU-145; settings: 48 hours exposure
[8] = system: LNCaP; test: SRB colorimetric assay of cell growth and viability, LNCaP; settings: 48 hours exposure
[9] = system: HT-29; test: SRB colorimetric assay of cell growth and viability, HT-29; settings: 48 hours exposure
[10] = system: SK-BR-3; test: SRB colorimetric assay of cell growth and viability, SK-BR-3; settings: 48 hours exposure
[11] = system: A-549; test: SRB colorimetric assay of cell growth and viability, A-549; settings: 48 hours exposure
[12] = system: PANC-1; test: SRB colorimetric assay of cell growth and viability, PANC-1; settings: 48 hours exposure
[13] = SRB colorimetric assay of cell growth and viability, HMEC-1; settings: human, HMEC-1 cells; 48 hours exposure; read-out: LC50 H-MEC-1
Excerpt: as §1, §2, §3, §4
as §5, with “Unbound SRB is removed by washing with 1% acetic acid. Plates are air dried and bound stain is solubilized with Tris buffer.” left out
as §6

[14] = system: HMEC-1; test: as above; settings: 48 hours exposure
Excerpt: as §1, §2, §3, §4
as §5, with “Unbound SRB is removed by washing with 1% acetic acid. Plates are air dried and bound stain is solubilized with Tris buffer.” left out
as §6

[15] = system: SK-MEL-28; test: SRB colorimetric assay of cell growth and viability, SK-MEL-28; settings: 48 hours exposure
[16] = system: MB-231; test: SRB colorimetric assay of cell growth and viability, MB-231; settings: for TGI (total growth inhibition): MB-231 cells, 48 hours exposure
Excerpt: as §1, §2, §3, §4, §5, §6

[17] = read-out: GI50 (growth inhibition at 50%), HT-29 cells, SRB
[18] = read-out: LC50 (lethal concentration at 50%), HT-29 cells, SRB
[19] = read-out: GI50 (growth inhibition at 50%), A-549 cells, SRB
[20] = read-out: LC50 (lethal concentration at 50%), A-549 cells, SRB

For C/C=C1\NC(=O)[C@H](Cc2ccccc2)NC(=O)[C@@H](C(C)C)NC(=O)[C@@H]([C@@H](C)CC)NC(=O)[C@H](NC(=O)[C@H](NC(=O)[C@H](CCCCN)NC(=O)[C@H]2CCCN2C(=O)[C@H](NC(=O)[C@@H](NC(=O)[C@@H](NC(=O)[C@H](NC(=O)CCCC(C)C)C(C)C)[C@@H](C)O)C(C)C)C(C)C)[C@@H](C)CC)[C@@H](C)OC(=O)[C@H](C(C)C)NC1=O [Compound 5, [Lys^8]-KF], which GI50 [1] is on record?
Its GI50 is 183 nM.

And the LC50 (concentration causing 50% net cell killing) [1]?
Its LC50 (concentration causing 50% net cell killing) is 1230 nM.

And the “TGI IGROV” value [1]?
Its value is 3.71E−07 Molar.

What about the GI50 [2] of the same compound?
The GI50 was 155 nM.

What about the “TGI LOVO” value [2] of the same compound?
Its value is 2.71E−07 Molar.

What about the CC50 ([2]; read-out: LC50 LOVO) of the same compound?
Its CC50 is 478 nM.

And the GI50 [3]?
Its GI50 is 162 nM.

And the “TGI LOVO-DOX” value [3]?
Its value is 2.98E−07 Molar.

And the CC50 ([3]; read-out: LC50 LOVO-DOX)?
Its CC50 is 552 nM.

What about the “TGI SKOV-3” value [4] of the same compound?
Its value is 4.08E−07 Molar.

What about the GI50 ([4]; read-out: GI50 SKOV-3) of the same compound?
The GI50 was 196 nM.

What about the CC50 ([4]; read-out: LC50 SKOV-3) of the same compound?
The CC50 was 1490 nM.

What about the GI50 [5] of the same compound?
The GI50 was 771 nM.

What about the “TGI K-562” value [5] of the same compound?
The value was 1.65E−06 Molar.

And the CC50 ([5]; read-out: LC50 K-562)?
The CC50 was 3550 nM.

What about the GI50 [6] of the same compound?
Its GI50 is 240 nM.

What about the “TGI IGROV-ET” value [6] of the same compound?
The value was 4.88E−07 Molar.

What about the CC50 ([6]; read-out: LC50 IGROV-ET) of the same compound?
Its CC50 is 2830 nM.

And the GI50 [7]?
Its GI50 is 18.1 nM.

What about the LC50 (concentration causing 50% net cell kill) [7] of the same compound?
Its LC50 (concentration causing 50% net cell kill) is 56.9 nM.

And the “TGI DU-145” value [7]?
The value was 3.20E−08 Molar.

What about the “TGI LN-caP” value [8] of the same compound?
Its value is 2.61E−08 Molar.

And the GI50 ([8]; read-out: GI50 LN-caP)?
Its GI50 is 14.2 nM.

What about the CC50 ([8]; read-out: LC50 LN-caP) of the same compound?
The CC50 was 47.9 nM.

And the “TGI HT-29” value [9]?
The value was 2.81E−07 Molar.

And the GI50 ([9]; read-out: GI50 HT-29)?
The GI50 was 158 nM.

And the CC50 ([9]; read-out: LC50 HT-29)?
Its CC50 is 498 nM.

What about the GI50 [10] of the same compound?
Its GI50 is 169 nM.

What about the LC50 [10] of the same compound?
The LC50 was 554 nM.

And the “TGI SK-BR-3” value [10]?
The value was 3.06E−07 Molar.

What about the “TGI A-549” value [11] of the same compound?
Its value is 2.75E−07 Molar.

And the GI50 ([11]; read-out: GI50 A-549)?
The GI50 was 129 nM.

And the CC50 ([11]; read-out: LC50 A-549)?
Its CC50 is 582 nM.

And the GI50 [12]?
Its GI50 is 1140 nM.

And the “TGI PANC-1” value [12]?
Its value is 2.37E−06 Molar.

What about the CC50 ([12]; read-out: LC50 PANC-1) of the same compound?
The CC50 was 4920 nM.

And the CC50 at 48 h [13]?
Its CC50 at 48 h is 44.6 nM.

What about the “TGI H-MEC-1” value [14] of the same compound?
Its value is 2.63E−08 Molar.

What about the GI50 ([14]; read-out: GI50 H-MEC-1) of the same compound?
The GI50 was 15.6 nM.

What about the GI50 [15] of the same compound?
The GI50 was 811 nM.

And the “TGI MEL-28” value [15]?
Its value is 1.87E−06 Molar.

And the CC50 ([15]; read-out: LC50 MEL-28)?
Its CC50 is 4300 nM.

What does the source list for C/C=C1\NC(=O)[C@H](Cc2ccccc2)NC(=O)[C@@H](C(C)C)NC(=O)[C@@H]([C@@H](C)CC)NC(=O)[C@H](NC(=O)[C@H](NC(=O)[C@@H](CCCN)NC(=O)[C@@H]2CCCN2C(=O)[C@H](NC(=O)[C@@H](NC(=O)[C@@H](NC(=O)[C@H](NC(=O)CCCC(C)C)C(C)C)[C@@H](C)O)C(C)C)C(C)C)[C@@H](C)CC)[C@@H](C)OC(=O)[C@H](C(C)C)NC1=O [Compound 106, [D-Orn^8, L-Pro^9]-KF]?
TGI (total growth inhibition) [16]: 6.77E−06 Molar; GI50 ([16]; read-out: GI50 (growth inhibition at 50%), MB-231 cells, 48 hours exposure): ≥ 6770 nM; CC50 ([16]; read-out: LC50 (lethal concentration at 50%), MB-231 cells, 48 hours exposure): ≥ 6770 nM; TGI (total growth inhibition) ([9]; HT-29 cells, SRB): 6.77E−06 Molar; GI50 [9, 17]: 6770 nM; CC50 [9, 18]: 6770 nM; TGI (total growth inhibition) ([11]; A-549 cells, SRB): 6.77E−06 Molar; GI50 [11, 19]: 6770 nM; CC50 [11, 20]: 6770 nM

Which results are given for C/C=C1\NC(=O)[C@H](Cc2ccccc2)NC(=O)[C@@H](C(C)C)NC(=O)[C@@H]([C@@H](C)CC)NC(=O)[C@H](NC(=O)[C@@H](CCS)NC(=O)[C@H](CCCN)NC(=O)[C@H]2CCCN2C(=O)[C@@H](CCS)NC(=O)[C@@H](NC(=O)[C@@H](NC(=O)[C@H](NC(=O)CCCC(C)C)C(C)C)[C@@H](C)O)C(C)C)[C@@H](C)OC(=O)[C@H](C(C)C)NC1=O [Compound 109, [D-homoCys^7, D-homoCys^10]-KF] ({Hexanoyl(5-Me)}-[dV]TV[d(hCys)][dP][Orn][d(hCys)][d(aThr)][d(aIle)][dV]F[Dhb]V; ester 8-C)?
TGI (total growth inhibition) [16]: 6.26E−06 Molar; TGI (total growth inhibition) ([9]; HT-29 cells, SRB): 6.26E−06 Molar; GI50 [9, 17]: 6260 nM; CC50 [9, 18]: 6260 nM; TGI (total growth inhibition) ([11]; A-549 cells, SRB): 6.26E−06 Molar; GI50 [11, 19]: 6260 nM; CC50 [11, 20]: 6260 nM

Which “TGI (total growth inhibition)” value [16] does the source give for C/C=C1\NC(=O)[C@H](Cc2ccccc2)NC(=O)[C@@H](C(C)C)NC(=O)[C@@H]([C@@H](C)CC)NC(=O)[C@H](NC(=O)[C@H](NC(=O)[C@H](CCCN)NC(=O)[C@H]2CCCN2C(=O)[C@H](NC(=O)[C@@H](NC(=O)[C@@H](NC(=O)[C@H](NC(=O)CCCC(C)C)C(C)C)[C@@H](C)O)C(C)C)C(C)C)C(C)C)[C@@H](C)OC(=O)[C@H](C(C)C)NC1=O [Compound 105, [D-Val^7]-KF] ({Hexanoyl(5-Me)}-[dV]TV[dV][dP][Orn][dV][d(aThr)][d(aIle)][dV]F[Dhb]V; ester 8-C) here?
Its value is 6.33E−06 Molar.

And the “TGI (total growth inhibition)” value ([9]; HT-29 cells, SRB)?
The value was 8.87E−07 Molar.

What about the GI50 [9, 17] of the same compound?
Its GI50 is 824 nM.

What about the CC50 [9, 18] of the same compound?
The CC50 was 887 nM.

What about the “TGI (total growth inhibition)” value ([11]; A-549 cells, SRB) of the same compound?
The value was 2.60E−06 Molar.

What about the GI50 [11, 19] of the same compound?
The GI50 was 2280 nM.

What about the CC50 [11, 20] of the same compound?
Its CC50 is 3040 nM.

Reference: patent US20070117743A1, “New antitumoral compounds” (priority 2003, published 2007)
